Source: patent US10844091B2 (priority 2017, dated 2020)
Non-standard residues stand in square brackets, D forms with d.

Experiments:
[1] = test system: ATP; experiment: Brain ATP level in rat models with Alzheimer's disease; type: in vivo; details: tetrapeptide 0.1 mg/kg; as a trend
Description: (§1) The drugs were administered daily, once a day.
1966, t. […] M. I. Prokhorova, Leningrad, pub. House LSU, 1982.—pp. 256-258].

[2] = test system: rat models with AD; experiment: Open field (OF) test, scopolamine-induced Alzheimer's disease model; type: in vivo; details: scopolamine AD rats; 0.1 mg/kg i.n. 10 days; p<0.05
Description: White random-bred adult male rats weighing 200-240 g were used. Groups of 7 animals per group were formed. 1st group—control, 2nd—pathology, 3rd—comparator drug, 4th-6th—neuropeptides.
as §1
After a course of treatment with the preparations, the CNS function of the animals was evaluated according to the open field (OF), extrapolation escape (EE), and conditioning passive avoidance reflex (CPAR) tests [Guidelines for conducting nonclinical studies of pharmaceuticals/edited by A. N. Mironov, MD, PhD, Part 1, M.: Grief and K, 2012-944 p.; Methods of behavior analysis in neuroscience—London, New York, Washington: CRCPress, 2001.-329 p.], and also The Porsolt swim test (PST) [Methods of behavior analysis in neuroscience—London, New York, Washington: CRCPress, 2001.-329 p; Porsolt R. D. Depression: A new animal model sensitive to antidepressant treatments/R. D. Porsolt, M. LePichon, M. Oalfre//Nature.—1977.—Vol. 266.—P. 730-732.].
The OF and EE tests were conducted on the 1st day, PST—on the 2nd day, CPAR—on the 1st and 10th day post treatment with the preparations. […] The antiamnesic action (AA) in the CPAR test was calculated using Butler's formula [K. S. Radionova. […] The brain was extracted and weighed, and the brain weight coefficient (BWC) was calculated. […]

[3] = test system: malonic aldehyde; experiment: Malonic aldehyde content in the brain of rat models with Alzheimer's disease; type: in vivo; details: tetrapeptide 0.1 mg/kg
[4] = test system: intact rats and animals with reserpine-induced depression; experiment: Popsolt swim test, intact rats and animals with reserpine-induced depression; type: in vivo, rat; details: for Number of immobilization episodes / Total duration of immobilization / Latent immobilization period: imipramine 15 mg/kg i.p., tetrapeptide (LYS) 0.02 mg/kg i.n.
Description: The experiment was conducted on 16 white random-bred adult male rats weighing:
180-220 g. The antidepressant activity of tetrapeptide (LYS), a neuroprotector, at a 0.02 mg/kg dose intranasally (i.n.) was evaluated. […] The experiment was conducted in two stages. […] 25-30 min. prior to the start of the experiment, the animals were administered their respective drugs. The animals in the control group were administered 0.9% NaCl solution i.p. and i.n. in the volume equal to the volume of the medications. After that, the animals of all groups were placed in the open field (OF) for 3 min., and their locomotor (number of crossed squares), orientation, and exploratory (number of upright positions and explored openings) activity as well as their emotional reactions (fecal boluses, urination, grooming) were evaluated. The indicators of depression in the animals (latent immobilization period, the number of such instances, and their total duration) were evaluated in the Popsolt swim test (PST) over 6 min. In the next 2 days, all the medications were administered at the same dose once a day; the last administration—30 min before the depressogenic sympatholytics of reserpine. Reserpine was administered on the 3rd day (2nd stage of the experiment) at a 4 mg/kg dose i.p. (as a suspension stabilized with Tween-80). Animals in all 3 groups were evaluated 6-7 hr. later in the OF and PST.
Test results were statistically processed. When the data distribution was normal, the parametric Student's t-distribution test was applied, when it was absent, the non-parametric MannWhitney U-test was used. When processing the results in an alternative form (presence/absence of the indicator), Fisher's angular transformation φ was applied. Wilcoxon paired t-criterium test was used for the intra-group statistical evaluation of the changed in the animal test results prior and post simulated depression. The results were considered to be statistically significant when p<0.05.

[5] = test system: superoxide dismutase; experiment: Superoxide dismutase activity in the brain of rat models with Alzheimer's disease; type: in vivo; details: tetrapeptide 0.1 mg/kg
Description: as §1
Standard biochemical methods were used to determine the content and activity of antioxidant defense enzymes and products of lipid peroxidation: malonic dialdehyde (MDA) [Modern Biochemistry Methods/[edited by V. N. Orekhovich]; M. Medicine, 1977, 392 pp]; superoxide dismutase (SOD) [O. P. Makarevich Activity of superoxide dismutase in blood in the acute period of various diseases/O. P. Makarevich, P. P. Golikov//Lab. Science, 1983, No 6, pp 24-27]; catalase [Methods for the Determination of Catalase Activity/M. A. Korolyuk, L. I. Ivanova, I. G. Mayorova, et al//Lab. Science, 1988, No 1, pp 16-19]; and reduced glutathione [T. A. Kochetov A Practical Guide to Enzymology. M. Nauka, 1980, 280 pp].

[6] = R - reserpine-induced depression
[7] = reserpine-induced depression, p<0.05

## acetyl-D-Lys-Lys-Arg-Arg-amide (Ac-[dK]KRR-NH2; SMILES CC(=O)N[C@H](CCCCN)C(=O)N[C@@H](CCCCN)C(=O)N[C@@H](CCCNC(=N)N)C(=O)N[C@@H](CCCNC(=N)N)C(N)=O) [tetrapeptide (LYS), peptide acetyl-X-ARG-ARG-amide, X = D- and L-amino acid residues of lysine]
[1]
  brain ATP level: increased ATP level
[2]
  reduction of the number of grooming acts in the OF: 44.7%
[3]
  reduction of malonic aldehyde content in the brain relative to the pathology group: 39.8%
[4]; I - intact animals
  Number of immobilization episodes: 1.2 ± 0.6
  Total duration of immobilization: 4.0 ± 2.7 s
[4]; I - intact animals, 6 min
  Latent immobilization period: 214.6 ± 66.7 s
[4]; [6]
  Latent immobilization period: 170.8 ± 34.1 s
  Number of immobilization episodes: 3.0 ± 0.38
  Total duration of immobilization: 7.8 ± 2.3 s
[4]; R vs I
  Latent immobilization period, % change reserpine-induced depression vs. intact animals: (−20.4)^ %
  Number of immobilization episodes, % change reserpine-induced depression vs. intact animals: (+150.0%)
  Total duration of immobilization, % change reserpine-induced depression vs. intact animals: (+95.0%)
[4]; intact animals, p<0.05
  increase of the latent immobilization period compared to the control: 3.5 times
  reduction of the number of immobilization periods compared to the control: 11.5 times
  reduction of total duration of immobilization compared to the control: 16.1 times
[4]; [7]
  increase of the latent immobilization period compared to the control: 4.5 times
  reduction of the number of immobilization episodes compared to the control: 2.6 times
  reduction of total duration of immobilization compared to the control: 3.6 times
[5]
  increase of SOD activity compared to the pathology group: 22%
